# Data: US10294202B2, “Pyrrolidinones as herbicides” (FMC Corporation, priority 2013, dated 2019)
# Columns and labels:
# [1] = tested on: giant foxtail; experiment: Test A pre-/postemergence herbicide test; type: in vivo, Setaria faberii; conditions: for Plant response rating, Foxtail, Giant: 0 to 100 scale
# Summary of the method: (§1)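 Both application timings used compounds in a non-phytotoxic solvent plus surfactant. Pre-emergence: soil sprayed directly after seeding into loam/sand. Post-emergence: foliage of 2–10 cm seedlings (1–2 leaves) sprayed. Injury rated ~10 days later, 0–100.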
# [2] = tested on: barnyardgrass; experiment: Test C pre-/postemergence herbicide test; type: in vivo, Echinochloa crus-galli
# Summary of the method: (§2)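 Herbicidal effect was judged by eye 13 to 15 days after treatment in the greenhouse, using a 0–100 scale against controls. Chemicals in a non-phytotoxic solvent with surfactant were sprayed onto planted loam/sand soil or onto plants 2 to 18 cm tall in a peat-based growing medium.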
# [3] = tested on: nutsedge, yellow; experiment: Test C pre-/postemergence herbicide test; type: in vivo, Cyperus esculentus
# Summary of the method: as §2
# [4] = tested on: lambsquarters; experiment: Test C pre-/postemergence herbicide test; type: in vivo, Chenopodium album
# Summary of the method: as §2
# [5] = tested on: oilseed rape; experiment: Test C pre-/postemergence herbicide test; type: in vivo, Brassica napus
# Summary of the method: as §2
# [6] = tested on: ducksalad; experiment: Test B flooded paddy test; type: in vivo, Heteranthera limosa; conditions: 500 g ai/ha, Flood; scale of 0 to 100 where 0 is no effect and 100 is complete control
# Summary of the method: (§3)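 Plants were grown to the 2-leaf stage, then pots were flooded to 3 cm above the soil and compound was applied directly into the paddy water, with that depth held throughout. After 13 to 15 days in a greenhouse, injury was rated visually against untreated controls on a 0 to 100 scale (100 = complete control).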
# [7] = tested on: pigweed; experiment: Test C pre-/postemergence herbicide test; type: in vivo, Amaranthus retroflexus
# Summary of the method: as §2
# [8] = tested on: crabgrass, large; experiment: Test C pre-/postemergence herbicide test; type: in vivo, Digitaria sanguinalis
# Summary of the method: as §2
# [9] = tested on: rice; experiment: Test B flooded paddy test; type: in vivo, Oryza sativa; conditions: 500 g ai/ha, Flood; scale of 0 to 100 where 0 is no effect and 100 is complete control
# Summary of the method: as §3
# [10] = tested on: blackgrass; experiment: Test C pre-/postemergence herbicide test; type: in vivo, Alopecurus myosuroides
# Summary of the method: as §2
# [11] = tested on: wheat; experiment: Test A pre-/postemergence herbicide test; type: in vivo, Triticum aestivum; conditions: Postemergence
# Summary of the method: as §1
# [12] = tested on: barnyardgrass; experiment: Test B flooded paddy test; type: in vivo, Echinochloa crus-galli; conditions: 500 g ai/ha, Flood; scale of 0 to 100 where 0 is no effect and 100 is complete control
# Summary of the method: as §3
# [13] = Postemergence, 31 g ai/ha, scale 0 to 100 (0 no effect, 100 complete control)
# [14] = Postemergence, 62 g ai/ha, scale 0 (no effect) to 100 (complete control)
# [15] = Postemergence, 125 g ai/ha, scale 0 to 100 (0 no effect, 100 complete control)
# [16] = Postemergence, 250 g ai/ha, scale 0 to 100 (0 no effect, 100 complete control)
# [17] = Preemergence, 31 g ai/ha, scale 0 to 100, 0 is no effect and 100 is complete control
# [18] = Preemergence, 62 g ai/ha, scale 0 to 100
# [19] = Preemergence, 125 g ai/ha, scale 0 to 100 (0 no effect, 100 complete control)
# [20] = Preemergence, 62 g ai/ha, scale 0 to 100 (0 no effect, 100 complete control)
smiles,measurement,setting,value
O=C1NCC(c2cccc(OC(F)F)c2)C1C(=O)Nc1ccccc1F (centres unmarked) [Compound 223],"Plant response rating, Foxtail, Giant","[1]; 125 g ai/ha, visual rating, 0 no effect, 100 complete control, approximately 10 days, preemergence",90
same,"Plant response rating, Foxtail, Giant","[1]; Postemergence, 125 g ai/ha, 0 is no effect, 100 is complete control",80
same,"Foxtail, Giant plant response rating (0 to 100 scale, 0 is no effect, 100 is complete control)","[1]; Postemergence, 500 g ai/ha",90
same,"Plant response rating, Foxtail, Giant","[1]; preemergence, 500 g ai/ha, 0 is no effect and 100 is complete control",90
same,"Plant response rating, Barnyardgrass",[2]; [13],0
same,"Plant response rating, Barnyardgrass",[2]; [14],0
same,"Plant response rating, Barnyardgrass",[2]; [15],45
same,"Plant response rating, Barnyardgrass",[2]; [16],60
same,Barnyardgrass plant response rating,[2]; [17],65
same,"Plant response rating, Barnyardgrass",[2]; [18],85
same,"Plant response rating, Barnyardgrass",[2]; [19],90
same,"Plant response rating (scale of 0 to 100; 0 is no effect, 100 is complete control), Barnyardgrass","[2]; Preemergence, 250 g ai/ha",95
same,"Plant response rating, Nutsedge, Yellow",[3]; [13],0
same,"Plant response rating, Nutsedge, Yellow",[3]; [14],0
same,"Plant response rating, Nutsedge, Yellow",[3]; [15],0
same,"Plant response rating, Nutsedge, Yellow",[3]; [16],0
same,"Nutsedge, Yellow plant response rating",[3]; [17],100
same,"Nutsedge, Yellow plant response rating",[3]; [20],0
same,"Plant response rating, Nutsedge, Yellow",[3]; [19],0
same,"Plant response rating (scale of 0 to 100), Nutsedge, Yellow","[3]; Preemergence, 250 g ai/ha",0
same,"Plant response rating, Lambsquarters",[4]; [13],0
same,"Plant response rating, Lambsquarters",[4]; [14],5
same,"Plant response rating, Lambsquarters",[4]; [15],35
same,"Plant response rating, Lambsquarters",[4]; [16],60
same,Lambsquarters plant response rating,[4]; [17],70
same,Lambsquarters plant response rating,[4]; [20],70
same,"Plant response rating, Lambsquarters",[4]; [19],85
same,"Plant response rating (scale of 0 to 100), Lambsquarters","[4]; Preemergence, 250 g ai/ha",90
same,"Plant response rating, Oilseed Rape",[5]; [13],0
same,"Plant response rating, Oilseed Rape",[5]; [14],0
same,"Plant response rating, Oilseed Rape",[5]; [15],0
same,"Plant response rating, Oilseed Rape",[5]; [16],10
same,Oilseed Rape plant response rating,[5]; [17],0
same,Oilseed Rape plant response rating,[5]; [20],0
same,"Plant response rating, Oilseed Rape",[5]; [19],0
same,"Plant response rating (scale of 0 to 100), Oilseed Rape","[5]; Preemergence, 250 g ai/ha",5
same,"Plant response rating, Ducksalad",[6],100
same,"Plant response rating, Pigweed",[7]; [13],5
same,"Plant response rating, Pigweed",[7]; [14],10
same,"Plant response rating, Pigweed",[7]; [15],10
same,"Plant response rating, Pigweed",[7]; [16],60
same,Pigweed plant response rating,[7]; [17],20
same,Pigweed plant response rating,[7]; [20],5
same,"Plant response rating, Pigweed",[7]; [19],20
same,"Plant response rating (scale of 0 to 100), Pigweed","[7]; Preemergence, 250 g ai/ha",30
same,"Plant response rating, Crabgrass, Large",[8]; [13],0
same,"Plant response rating, Crabgrass, Large",[8]; [14],10
same,"Plant response rating, Crabgrass, Large",[8]; [15],55
same,"Plant response rating, Crabgrass, Large",[8]; [16],80
same,"Crabgrass, Large plant response rating",[8]; [17],85
same,"Crabgrass, Large plant response rating",[8]; [20],90
same,"Plant response rating, Crabgrass, Large",[8]; [19],95
same,"Plant response rating (scale of 0 to 100), Crabgrass, Large","[8]; Preemergence, 250 g ai/ha",100
same,"Plant response rating, Rice",[9],0
same,"Plant response rating, Blackgrass",[10]; [13],0
same,"Plant response rating, Blackgrass",[10]; [14],0
same,"Plant response rating, Blackgrass",[10]; [15],0
same,"Plant response rating, Blackgrass",[10]; [16],0
same,Blackgrass plant response rating,[10]; [17],35
same,"Plant response rating, Blackgrass",[10]; [18],35
same,"Plant response rating, Blackgrass",[10]; [19],85
same,"Plant response rating (scale of 0 to 100), Blackgrass","[10]; Preemergence, 250 g ai/ha",85
same,"Plant response rating, Wheat","[11]; 125 g ai/ha, 0 to 100 scale, 0 is no effect, 100 is complete control",40
same,"Wheat plant response rating (0 to 100 scale, 0 is no effect, 100 is complete control)",[11]; 500 g ai/ha,50
same,"Plant response rating, Barnyardgrass",[12],75
